Measurements: ChEMBL document CHEMBL5543144, “Discovery of a Novel Potent Tetrazole Antifungal Candidate with High Selectivity and Broad Spectrum” (J Med Chem, 2024)
Converted amounts (≈) assume the structure as drawn. The source made the active and inactive calls. No cut-off for these calls is given here.

Columns and labels:
Candida parapsilosis = experiment: Antifungal activity against Candida parapsilosis 22019 assessed as inhibition of fungal growth incubated for 24 hrs by CLSI protocol based microbroth dilution method; format: functional; conditions: Lodderomyces parapsilosis
Pichia kudriavzevii = experiment: Antifungal activity against Candida krusei 4946 assessed as inhibition of fungal growth incubated for 24 hrs by CLSI protocol based microbroth dilution method; format: functional
[Candida] auris [1] = Antifungal activity against fluconazole resistant Candida auris 887 assessed as inhibition of fungal growth incubated for 48 hrs by CLSI protocol based microbroth dilution method; format: functional; conditions: Candidozyma auris
[Candida] auris [2] = Antifungal activity against fluconazole resistant Candida auris 789 assessed as inhibition of fungal growth incubated for 48 hrs by CLSI protocol based microbroth dilution method; format: functional; conditions: Candidozyma auris
[Candida] auris [3] = Antifungal activity against fluconazole resistant Candida auris D12 assessed as inhibition of fungal growth incubated for 48 hrs by CLSI protocol based microbroth dilution method; format: functional; conditions: Candidozyma auris
[Candida] auris [4] = Antifungal activity against fluconazole resistant Candida auris 791 assessed as inhibition of fungal growth incubated for 48 hrs by CLSI protocol based microbroth dilution method; format: functional; conditions: Candidozyma auris
Aspergillus fumigatus = experiment: Antifungal activity against Aspergillus fumigatus 7544 assessed as inhibition of fungal growth incubated for 48 hrs by CLSI protocol based microbroth dilution method; format: functional
[Candida] auris [5] = Antifungal activity against fluconazole resistant Candida auris 888 assessed as inhibition of fungal growth incubated for 48 hrs by CLSI protocol based microbroth dilution method; format: functional; conditions: Candidozyma auris
[Candida] auris [6] = Antifungal activity against fluconazole resistant Candida auris BS12372 assessed as inhibition of fungal growth incubated for 48 hrs by CLSI protocol based microbroth dilution method; format: functional; conditions: Candidozyma auris
Cryptococcus neoformans [7] = experiment: Antifungal activity against Cryptococcus neoformans H99 assessed as inhibition of fungal growth incubated for 72 hrs by CLSI protocol based microbroth dilution method; format: functional
Candida albicans [8] = experiment: Antifungal activity against Candida albicans SC5314 assessed as inhibition of fungal growth incubated for 24 hrs by CLSI protocol based microbroth dilution method; format: functional
Nakaseomyces glabratus = experiment: Antifungal activity against Candida glabrata 537 assessed as inhibition of fungal growth incubated for 48 hrs by CLSI protocol based microbroth dilution method; format: functional
Candida tropicalis = experiment: Antifungal activity against Candida tropicalis 2718 assessed as inhibition of fungal growth incubated for 24 hrs by CLSI protocol based microbroth dilution method; format: functional
Cryptococcus neoformans [9] = experiment: Antifungal activity against Cryptococcus neoformans H99 assessed as inhibition of fungal growth at 0.125 ug/ml incubated for 48 hrs by plate reader analysis; format: functional, organism-based; conditions: dose 0.125 µg/ml
Candida albicans [10] = experiment: Antifungal activity against Candida albicans SC5314 assessed as inhibition of fungal growth at 0.0156 ug/ml incubated for 24 hrs by plate reader analysis; format: functional, organism-based; conditions: dose 0.0156 µg/ml

Row | Compound | MIC50 (Candida parapsilosis) | MIC50 (Pichia kudriavzevii) | MIC50 ([Candida] auris [1]) | MIC50 ([Candida] auris [2]) | MIC50 ([Candida] auris [3]) | MIC50 ([Candida] auris [4]) | MIC50 (Aspergillus fumigatus) | MIC50 ([Candida] auris [5]) | MIC50 ([Candida] auris [6]) | MIC50 (Cryptococcus neoformans [7]) | MIC50 (Candida albicans [8]) | MIC50 (Nakaseomyces glabratus) | MIC50 (Candida tropicalis) | Activity (Cryptococcus neoformans [9]) | Activity (Candida albicans [10])
1 | CC[C@@H]([C@H](C)O)n1ncn(-c2ccc(N3CCN(c4ccc(OC[C@@H]5CO[C@@](Cn6cncn6)(c6ccc(F)cc6F)C5)cc4)CC3)cc2)c1=O [POSACONAZOLE] | 0.25 µg/mL (≈ 0.357 µM) | 0.5 µg/mL (≈ 0.713 µM) | 16 µg/mL (≈ 22.8 µM) | 16 µg/mL (≈ 22.8 µM) | 0.5 µg/mL (≈ 0.713 µM) | 2 µg/mL (≈ 2.85 µM) | 0.25 µg/mL (≈ 0.357 µM) | 8 µg/mL (≈ 11.4 µM) | 1 µg/mL (≈ 1.43 µM) | 0.063 µg/mL (≈ 0.0899 µM) | 0.016 µg/mL (≈ 0.0228 µM) | 0.5 µg/mL (≈ 0.713 µM) | < 0.008 µg/mL |  | 
2 | C[C@@H](n1ncc2cn(-c3ccc(F)cc3)nc2c1=O)[C@](O)(Cn1cncn1)c1ccc(F)cc1F | 2 µg/mL (≈ 4.15 µM) | 8 µg/mL (≈ 16.6 µM) |  |  |  |  | > 64 µg/mL |  |  | 2 µg/mL (≈ 4.15 µM) | 0.25 µg/mL (≈ 0.519 µM) | 4 µg/mL (≈ 8.31 µM) | 1 µg/mL (≈ 2.08 µM) |  | 
3 | C[C@@H](n1cnc2cc(Cl)ccc2c1=O)[C@](O)(Cn1cnnn1)c1ccc(F)cc1F | 0.063 µg/mL (≈ 0.146 µM) | 0.25 µg/mL (≈ 0.578 µM) | 32 µg/mL (≈ 73.9 µM) | 16 µg/mL (≈ 37 µM) | 8 µg/mL (≈ 18.5 µM) | 32 µg/mL (≈ 73.9 µM) | 8 µg/mL (≈ 18.5 µM) | 16 µg/mL (≈ 37 µM) | 8 µg/mL (≈ 18.5 µM) | 2 µg/mL (≈ 4.62 µM) | < 0.008 µg/mL | 0.031 µg/mL (≈ 0.0716 µM) | < 0.008 µg/mL |  | 
4 | C[C@@H](n1ccc2cc(Br)ccc2c1=O)[C@](O)(Cn1cncn1)c1ccc(F)cc1F | < 0.008 µg/mL | 0.063 µg/mL (≈ 0.133 µM) |  |  |  |  | 1 µg/mL (≈ 2.1 µM) |  |  | < 0.008 µg/mL | < 0.008 µg/mL | < 0.008 µg/mL | < 0.008 µg/mL |  | 
5 | C[C@@H](n1ncc2cn(-c3ccc(C(F)(F)F)cc3)nc2c1=O)[C@](O)(Cn1cncn1)c1ccc(F)cc1F | 0.5 µg/mL (≈ 0.941 µM) | 16 µg/mL (≈ 30.1 µM) |  |  |  |  | > 64 µg/mL |  |  | 1 µg/mL (≈ 1.88 µM) | 0.25 µg/mL (≈ 0.47 µM) | 0.5 µg/mL (≈ 0.941 µM) | 0.5 µg/mL (≈ 0.941 µM) |  | 
6 | C[C@@H](n1ccc2cc(Cl)ccc2c1=O)[C@](O)(Cn1cncn1)c1cc(F)ccc1F | < 0.008 µg/mL | 0.063 µg/mL (≈ 0.146 µM) |  |  |  |  | 0.25 µg/mL (≈ 0.58 µM) |  |  | < 0.008 µg/mL | < 0.008 µg/mL | < 0.008 µg/mL | < 0.008 µg/mL |  | 
7 | C[C@@H](n1cnc2cc(F)ccc2c1=O)[C@](O)(Cn1cnnn1)c1ccc(F)cc1F | 0.5 µg/mL (≈ 1.2 µM) | > 4 µg/mL |  |  |  |  | 16 µg/mL (≈ 38.4 µM) |  |  | 4 µg/mL (≈ 9.61 µM) | < 0.008 µg/mL | 0.25 µg/mL (≈ 0.6 µM) | 0.25 µg/mL (≈ 0.6 µM) |  | 
8 | C[C@@H](n1ncc2cn(-c3ccc(F)c(Cl)c3)nc2c1=O)[C@](O)(Cn1cncn1)c1ccc(F)cc1F | 2 µg/mL (≈ 3.88 µM) | > 64 µg/mL |  |  |  |  | > 64 µg/mL |  |  | > 64 µg/mL | 0.5 µg/mL (≈ 0.969 µM) | 8 µg/mL (≈ 15.5 µM) | 0.5 µg/mL (≈ 0.969 µM) |  | 
9 | C[C@@H](n1ccc2cc(F)ccc2c1=O)[C@](O)(Cn1cnnn1)c1ccc(F)cc1F | 0.063 µg/mL (≈ 0.152 µM) | 1 µg/mL (≈ 2.41 µM) |  |  |  |  | 4 µg/mL (≈ 9.63 µM) |  |  | 0.016 µg/mL (≈ 0.0385 µM) | < 0.008 µg/mL | 0.063 µg/mL (≈ 0.152 µM) | < 0.008 µg/mL |  | 
10 | C[C@@H](n1ncc2cc(Br)ccc2c1=O)[C@](O)(Cn1cncn1)c1ccc(F)cc1F | < 0.008 µg/mL | 0.063 µg/mL (≈ 0.132 µM) |  |  |  |  | 1 µg/mL (≈ 2.1 µM) |  |  | < 0.008 µg/mL | < 0.008 µg/mL | 0.016 µg/mL (≈ 0.0336 µM) | < 0.008 µg/mL |  | 
11 | C[C@@H](n1ncc2cn(-c3ccc(C#N)cc3)nc2c1=O)[C@](O)(Cn1cncn1)c1ccc(F)cc1F | 1 µg/mL (≈ 2.05 µM) | > 64 µg/mL |  |  |  |  | > 64 µg/mL |  |  | 8 µg/mL (≈ 16.4 µM) | 0.5 µg/mL (≈ 1.02 µM) | 0.5 µg/mL (≈ 1.02 µM) | 1 µg/mL (≈ 2.05 µM) |  | 
12 | O[C@@](Cn1cnnn1)(c1ccc(F)cc1F)C(F)(F)c1ccc(-c2ccc(OCC(F)(F)F)cc2)cn1 [OTESECONAZOLE] | < 0.008 µg/mL | 0.5 µg/mL (≈ 0.948 µM) | 4 µg/mL (≈ 7.58 µM) | 8 µg/mL (≈ 15.2 µM) | 4 µg/mL (≈ 7.58 µM) | 8 µg/mL (≈ 15.2 µM) | > 64 µg/mL | 8 µg/mL (≈ 15.2 µM) | 1 µg/mL (≈ 1.9 µM) | < 0.008 µg/mL | < 0.008 µg/mL | < 0.008 µg/mL | < 0.008 µg/mL | Active | Active
13 | C[C@@H](n1ncc2cc(Cl)ccc2c1=O)[C@](O)(Cn1cncn1)c1cc(F)ccc1F | < 0.008 µg/mL | 0.125 µg/mL (≈ 0.289 µM) |  |  |  |  | 0.25 µg/mL (≈ 0.579 µM) |  |  | < 0.008 µg/mL | < 0.008 µg/mL | < 0.008 µg/mL | < 0.008 µg/mL |  | 
14 | C[C@@H](n1ccc2ccccc2c1=O)[C@](O)(Cn1cncn1)c1ccc(F)cc1F | 0.016 µg/mL (≈ 0.0404 µM) | 0.125 µg/mL (≈ 0.315 µM) |  |  |  |  | 0.5 µg/mL (≈ 1.26 µM) |  |  | 0.016 µg/mL (≈ 0.0404 µM) | < 0.008 µg/mL | 0.016 µg/mL (≈ 0.0404 µM) | 0.016 µg/mL (≈ 0.0404 µM) |  | 
15 | C[C@@H](n1cnc2cc(OC(F)(F)F)ccc2c1=O)[C@](O)(Cn1cnnn1)c1ccc(F)cc1F | 0.25 µg/mL (≈ 0.518 µM) | > 4 µg/mL |  |  |  |  | 32 µg/mL (≈ 66.3 µM) |  |  | 0.125 µg/mL (≈ 0.259 µM) | < 0.008 µg/mL | < 0.008 µg/mL | 0.031 µg/mL (≈ 0.0643 µM) |  | 
